Measurements reported in publication PMC2075511, “Molecular evolution of type VI intermediate filament proteins” (BMC Evolutionary Biology, 2007).

Biological target: T1, HR domain of chicken transitin (HR) (Gallus gallus, UniProt Q90831)
T1 construct: entire C-terminal heptad repeat (HR) domain, more than 50 LQVEHGD repeats; T7- or His-tag fusion protein, expressed in bacteria
Experiment: malachite green phosphate release
Type: biochemical
Settings: 10 mM MgCl2, pH 7.5, 25°C

T1 sequence (Q90831 323-1840 limits assumed): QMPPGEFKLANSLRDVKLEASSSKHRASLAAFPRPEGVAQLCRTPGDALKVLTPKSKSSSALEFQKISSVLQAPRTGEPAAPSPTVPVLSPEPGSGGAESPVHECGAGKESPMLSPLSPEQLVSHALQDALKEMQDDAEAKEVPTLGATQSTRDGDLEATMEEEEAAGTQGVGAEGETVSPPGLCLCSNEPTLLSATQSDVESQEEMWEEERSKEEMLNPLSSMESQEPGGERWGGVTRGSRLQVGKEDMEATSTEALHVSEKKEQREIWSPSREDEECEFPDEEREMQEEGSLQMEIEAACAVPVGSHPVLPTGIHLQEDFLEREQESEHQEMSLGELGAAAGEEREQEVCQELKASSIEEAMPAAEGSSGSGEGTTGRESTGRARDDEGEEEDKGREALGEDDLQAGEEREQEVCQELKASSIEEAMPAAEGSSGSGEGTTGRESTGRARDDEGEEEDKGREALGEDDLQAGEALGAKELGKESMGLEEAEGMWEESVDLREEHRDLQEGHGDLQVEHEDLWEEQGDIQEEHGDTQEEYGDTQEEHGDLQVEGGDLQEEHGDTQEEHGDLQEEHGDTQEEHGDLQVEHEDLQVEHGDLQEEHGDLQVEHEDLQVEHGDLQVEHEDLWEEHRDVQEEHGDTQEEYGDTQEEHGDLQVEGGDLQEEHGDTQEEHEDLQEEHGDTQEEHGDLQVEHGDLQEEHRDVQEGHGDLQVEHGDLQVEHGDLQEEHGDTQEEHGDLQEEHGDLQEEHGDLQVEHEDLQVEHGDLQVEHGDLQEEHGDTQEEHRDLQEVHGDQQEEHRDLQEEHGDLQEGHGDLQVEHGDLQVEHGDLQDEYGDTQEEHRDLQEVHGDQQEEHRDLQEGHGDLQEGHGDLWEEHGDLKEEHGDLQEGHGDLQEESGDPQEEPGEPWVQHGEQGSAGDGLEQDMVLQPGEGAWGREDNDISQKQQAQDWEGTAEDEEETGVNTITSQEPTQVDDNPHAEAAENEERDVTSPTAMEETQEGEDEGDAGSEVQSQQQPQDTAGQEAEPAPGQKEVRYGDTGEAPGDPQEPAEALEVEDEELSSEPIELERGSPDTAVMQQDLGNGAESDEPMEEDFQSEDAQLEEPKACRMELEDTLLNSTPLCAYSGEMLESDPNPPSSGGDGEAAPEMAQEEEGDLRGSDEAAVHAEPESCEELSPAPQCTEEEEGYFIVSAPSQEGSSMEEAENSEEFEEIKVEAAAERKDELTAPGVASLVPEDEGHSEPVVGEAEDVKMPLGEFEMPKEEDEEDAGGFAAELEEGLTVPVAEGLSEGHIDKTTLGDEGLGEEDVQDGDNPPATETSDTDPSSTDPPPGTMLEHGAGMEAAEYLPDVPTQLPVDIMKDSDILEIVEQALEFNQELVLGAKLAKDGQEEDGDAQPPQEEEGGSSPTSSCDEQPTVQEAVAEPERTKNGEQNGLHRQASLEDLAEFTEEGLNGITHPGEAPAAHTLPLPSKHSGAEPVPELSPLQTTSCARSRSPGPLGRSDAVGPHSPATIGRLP

Structure (SMILES) | malachite green phosphate release (1 mM ATP) | malachite green phosphate release (1 mM GTP)
Nc1ncnc2c1ncn2[C@@H]1O[C@H](COP(=O)(O)OP(=O)(O)OP(=O)(O)O)[C@@H](O)[C@H]1O [ATP] | The HR domain of transitin has ATPase (Fig. 4a) as well as GTPase (Fig. 4b) activity | 
Nc1nc2c(ncn2[C@@H]2O[C@H](COP(=O)(O)OP(=O)(O)OP(=O)(O)O)[C@@H](O)[C@H]2O)c(=O)[nH]1 [GTP] |  | The HR domain of transitin has ATPase (Fig. 4a) as well as GTPase (Fig. 4b) activity
